Earlier results, collected in patent US11129865B2, “NEUPANEX®: neuroprotective, neuroregenerational, and neurogenesis supporting supplement combination” (priority 2017, dated 2021).
One block for each compound: values may come before it.

Experiments:
heme oxygenase-1 = details: astrocytes
heat shock protein 60 = details: astrocytes
hippocampal cell culture = details: pretreatment, low to moderate concentration (10 nm-100 nm) in culture medium; voltage clamp and toxic NMDA insult
[1] = system: IL-6 and IL-1 alpha and TNF-alpha
[2] = rodents, increased dietary cholesterol
[3] = supplementary dietary cholesterol

Compound: CC(=O)O[C@H](CC(=O)[O-])C[N+](C)(C)C [acetyl-L-carnitine]
levels of heme oxygenase-1 (heme oxygenase-1): increased levels of heme oxygenase-1 were induced in a dose- and time-dependent manner
heat shock protein 60 expression (heat shock protein 60): up-regulation of heat shock protein 60

Compound: Vitamin D
Increases IL-10 (IL-10): Vitamin D: Increases IL-10 (43%), Decreases IL-6 & TNF-Alpha,
neuroprotective effect compared to controls (hippocampal cell culture): dramatic neuroprotective effect
reduction in inflammatory cytokines IL-6, IL-1 alpha and TNF-alpha, concentration dependence [1]: lower concentrations of vitamin D were more effective than the higher concentrations

brain cholesterol [2]: dramatically increased brain cholesterol
Compound: CC(C)CCC[C@@H](C)[C@H]1CC[C@H]2[C@@H]3CC=C4C[C@@H](O)CC[C@]4(C)[C@H]3CC[C@]12C [cholesterol]
autistic behaviors of children with SLOS [3]: reduced or even eliminated
